How the values were obtained:
Type in all cases: in vivo
Blattella germanica [1] = assay: Knockdown spray test on Blattella germanica, 2.0% w/v oil formulation (Test Example 1); settings: topical, 0.25 h, active ingredient 2.0% w/v, 1.5 ml sprayed, within 15 minutes, read-out: knockdown rate of the test insects within 15 minutes
Procedure: Ten Blattella germanica (5 males and 5 females) were released in a test container (8.75 cm in diameter, 7.5 cm in height, and the bottom made of 16 mesh metallic wire) with the inner wall on which butter was applied, and the container was placed on the bottom of a test chamber (bottom: 46 cm×46 cm, height: 70 cm). From a height of 60 cm above the upper surface of the container, 1.5 ml of the test drug solution was sprayed using a spray gun (a spraying pressure of 0.42 kg/cm^2). Thirty seconds after spraying, the container was taken out from the test chamber, and after 2 minutes, 5 minutes and 15 minutes, the number of knocked-down insects was counted to obtain a knockdown rate. The knockdown rate was calculated by the following equation.
(§1) Knockdown Rate (%)=(Number of Knocked-down Insects/Number of Tested Insects)×100

Musca domestica [2] = assay: Knockdown spray test on adult Musca domestica (Test Example 3); settings: topical, 0.25 h, active ingredient 2.0% w/v, 0.5 ml sprayed, within 15 minutes, read-out: knockdown rate of the test insects within 15 minutes
Procedure: Ten adult Musca domestica (five males and five females) were released in a polyethylene cup (bottom diameter: 10.6 cm), and the cup was covered with a 16-mesh nylon gauze. The polyethylene cup was placed on the bottom of a test chamber (bottom: 46 cm×46 cm, height: 70 cm). From a height of 30 cm above the upper surface of the polyethylene cup, 0.5 ml of the test drug solution was sprayed using a spray gun (a spraying pressure of 0.9 kg/cm^2). Immediately after spraying, the cup was taken out from the test chamber, and after 2 minutes, 5 minutes and 15 minutes, the number of knocked-down insects was counted to obtain a knockdown rate. The knockdown rate was calculated by the following equation.
as §1

Culex pipiens pallens = assay: Knockdown spray test on adult Culex pipiens pallens (Test Example 4); settings: topical, 0.25 h, active ingredient 0.1% w/v, 0.5 ml sprayed, within 15 minutes, read-out: knockdown rate of the test insects within 15 minutes
Outline: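 Ten adult mosquitoes in a gauze-covered cup inside a 46×46×70 cm chamber were sprayed with 0.5 ml of test solution from 30 cm at 0.4 kg/cm^2. The cup was removed at once, and knocked-down insects were counted at 2, 5 and 15 min; knockdown rate (%) = knocked-down/tested ×100.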

Plutella xylostella = assay: Foliar spray test on Plutella xylostella on cabbage (Test Example 10); settings: 120 h, third instar larvae of Plutella xylostella on cabbage, 500 ppm spray 20 ml/cup, after five days, read-out: controlling value
Procedure: On the other hand, cabbage was planted in a polyethylene cup, and grown until the third-fourth true leaf was spread. The test spray solution was sprayed to the cabbage at a ratio of 20 ml/cup. After the drug solution sprayed on the cabbage was dried, 10 third instar larvae of Plutella xylostella were allowed to parasitize the cabbage. After five days, the number of Plutella xylostella was investigated, and the controlling value was calculated according to the following standard. Controlling value (%)={1−(Cb×Tai)/(Cai×Tb)}×100 In the equation, the symbols represent as follows. Cb: the number of insects in a non-treated section before treatment Cai: the number of insects in a non-treated section on observation Tb: the number of insects in a treated section before treatment Tai: the number of insects in a treated section on observation

Musca domestica [3] = assay: Filter paper/sucrose bait death rate test on Musca domestica (Test Example 5); settings: female imagoes of Musca domestica, 0.7 ml on filter paper, after 24 hours
Procedure: A filter paper having a diameter of 5.5 cm was spread on the bottom of a polyethylene cup having the same diameter and 0.7 ml of the test drug solution was added dropwise onto the filter paper, and 30 mg of sucrose was uniformly placed as bait.
Into the polyethylene cup, 10 female imagoes of Musca domestica were released, and the cup was sealed with a lid. After 24 hours, the life and death of Musca domestica was examined, and the death rate was calculated. The death rate was calculated by the following equation.
Death rate (%)=(Number of dead insects/Number of tested insects)×100

Blattella germanica [4] = assay: Knockdown spray test on Blattella germanica, 0.1% w/v oil formulation (Test Example 2); settings: topical, 0.25 h, active ingredient 0.1% w/v, 1.5 ml sprayed, within 15 minutes, read-out: knockdown rate of the test insects within 15 minutes
Outline: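 Ten German cockroaches (5 males, 5 females) in a mesh-bottomed, butter-walled container were sprayed with 1.5 ml test solution from 60 cm at 0.42 kg/cm^2 inside a chamber.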

Row | SMILES | pest or weed control at 2 % strength (Blattella germanica [1]) [%] | pest or weed control at 2 % strength (Musca domestica [2]) [%] | pest or weed control at 0.1 % strength (Culex pipiens pallens) [%] | pest or weed control at 500 ppm (Plutella xylostella) [%] | pest or weed control at 500 ppm (Musca domestica [3]) [%] | pest or weed control at 0.1 % strength (Blattella germanica [4]) [%]
1 | CCCCc1cc(C(=O)NCC2CCOC2)no1 (stereo not drawn) [(11), N-(tetrahydrofuran-3-ylmethyl)-5-butylisoxazole-3-carboxamide] | ≥ 80 | ≥ 80 | ≥ 80 | – | – | –
2 | O=C(NCC1CCOC1)c1cc(COCc2ccccc2)on1 (stereo not drawn) [(13), N-(tetrahydrofuran-3-ylmethyl)-5-benzyloxymethylisoxazole-3-carboxamide] | ≥ 80 | ≥ 80 | ≥ 80 | ≥ 90 | – | –
3 | O=C(NCC1CCCCO1)c1cc(COCc2ccccc2)on1 (stereo not drawn) [(14), N-(tetrahydropyran-2-ylmethyl)-5-benzyloxymethylisoxazole-3-carboxamide] | ≥ 80 | ≥ 80 | ≥ 80 | – | – | –
4 | O=C(NCC1CCOCC1)c1cc(COCc2ccccc2)on1 [(15), N-(tetrahydropyran-4-ylmethyl)-5-benzyloxymethylisoxazole-3-carboxamide] | ≥ 80 | ≥ 80 | ≥ 80 | ≥ 90 | – | –
5 | O=C(NCC1CCOC1)c1cc(CCCc2ccccc2)on1 (stereo not drawn) [(22), N-(tetrahydrofuran-3-ylmethyl)-5-(3-phenylpropyl)isoxazole-3-carboxamide] | ≥ 80 | ≥ 80 | ≥ 80 | – | ≥ 90 | –
6 | O=C(NCC1CCOC1)c1cc(Cc2ccccc2)on1 (stereo not drawn) [(26), N-(tetrahydrofuran-3-ylmethyl)-5-benzylisoxazole-3-carboxamide] | ≥ 80 | ≥ 80 | ≥ 80 | – | ≥ 90 | –
7 | O=C(NCC1CCOC1)c1cc(COCc2cccc3ccccc23)on1 (stereo not drawn) [(27), N-(tetrahydrofuran-3-ylmethyl)-5-(1-naphthylmethoxymethyl)isoxazole-3-carboxamide] | ≥ 80 | ≥ 80 | ≥ 80 | – | – | –
8 | O=C(NCC1CCOC1)c1cc(COCc2cccc(C(F)(F)F)c2)on1 (stereo not drawn) [(64), N-(tetrahydrofuran-3-ylmethyl)-5-(3-trifluoromethylbenzyloxymethyl)isoxazole-3-carboxamide] | ≥ 80 | ≥ 80 | ≥ 80 | – | – | –
9 | O=C(NCC1CCOC1)c1cc(COCc2cccc(-c3ccccc3)c2)on1 (stereo not drawn) [(113), N1-(tetrahydrofuran-3-ylmethyl)-5-(3-phenylbenzyloxymethyl)isoxazole-3-carboxamide] | ≥ 80 | ≥ 80 | ≥ 80 | – | – | –
10 | O=C(NCC1CCOC1)c1cc(COCC2COc3ccccc3O2)on1 (stereo not drawn) [(120), N-(tetrahydrofuran-3-ylmethyl)-5-(1,4-benzodioxan-2-ylmethoxymethyl)isoxazole-3-carboxamide] | – | ≥ 80 | ≥ 80 | – | – | ≥ 80
11 | O=C(NCC1CCOC1)c1cc(COCCC2CCCC2)on1 (stereo not drawn) [(132), N-(tetrahydrofuran-3-ylmethyl)-5-(2-cyclopentylethyl)oxymethylisoxazole-3-carboxamide] | – | ≥ 80 | ≥ 80 | – | ≥ 90 | ≥ 80
12 | O=C(NCC1CCOC1)c1cc(CCCOCc2ccccc2)on1 (stereo not drawn) [(139), N-(tetrahydrofuran-3-ylmethyl)-5-(3-benzyloxypropyl)isoxazole-3-carboxamide] | ≥ 80 | ≥ 80 | ≥ 80 | – | – | –
13 | O=C(NCC1CCOC1)c1cc(CCCCOCc2ccccc2)on1 (stereo not drawn) [(140), N-(tetrahydrofuran-3-ylmethyl)-5-(4-benzyloxybutyl)isoxazole-3-carboxamide] | ≥ 80 | ≥ 80 | ≥ 80 | – | – | –
14 | O=C(NCC1CCOC1)c1cc(CCCCCOCc2ccccc2)on1 (stereo not drawn) [(141), N-(tetrahydrofuran-3-ylmethyl)-5-(5-benzyloxypentyl)isoxazole-3-carboxamide] | ≥ 80 | ≥ 80 | ≥ 80 | – | – | –
15 | O=C(NCC1CCOC1)c1cc(CCCCCCOCc2ccccc2)on1 (stereo not drawn) [(143), N-(tetrahydrofuran-3-ylmethyl)-5-(6-benzyloxyhexyl)isoxazole-3-carboxamide] | ≥ 80 | ≥ 80 | ≥ 80 | – | – | –
16 | O=C(NCC1CCOC1)c1cc(Cc2cccc(C(F)(F)F)c2)on1 (stereo not drawn) [(158), N-(tetrahydrofuran-3-ylmethyl)-5-(3-trifluoromethylbenzyl)isoxazole-3-carboxamide] | ≥ 80 | ≥ 80 | ≥ 80 | – | – | –
17 | Cc1c(C(=O)NCC2CCOC2)noc1COCc1ccccc1 (stereo not drawn) [(169), N-(tetrahydrofuran-3-ylmethyl)-(5-benzyloxymethyl-4-methyl) isoxazole-3-carboxamide] | – | ≥ 80 | ≥ 80 | – | – | ≥ 80
18 | O=C(NCC1CCOC1)c1cc(COc2ccccc2Cl)on1 (stereo not drawn) [(176), N-(tetrahydrofuran-3-ylmethyl)-5-(2-chlorophenoxymethyl)isoxazole-3-carboxamide] | – | ≥ 80 | ≥ 80 | – | ≥ 90 | ≥ 80
19 | Cc1c(C(=O)NCC2CCOC2)noc1COCc1ccc2ccccc2c1 (stereo not drawn) [(213), N-(tetrahydrofuran-3-ylmethyl)-4-methyl-5-(2-naphthylmethoxymethyl)isoxazole-3-carboxamide] | – | ≥ 80 | ≥ 80 | – | – | ≥ 80
20 | O=C(NCC1CCOCC1)c1cc(CCCc2ccccc2)on1 [(235), N-(tetrahydropyran-4-ylmethyl)-5-(3-phenylpropyl)isoxazole-3-carboxamide] | – | ≥ 80 | ≥ 80 | – | – | ≥ 80
21 | O=C(NCC1CCOC1)c1cc(COCC#Cc2ccccc2)on1 (stereo not drawn) [(240), N-(tetrahydrofuran-3-ylmethyl)-5-(3-phenyl-2-propionyl)oxymethylisoxazole-3-carboxamide] | ≥ 80 | ≥ 80 | ≥ 80 | – | – | ≥ 80
22 | O=C(NCC1CCOC1)c1cc(COCc2ccccc2F)on1 (stereo not drawn) [(264), N-(tetrahydrofuran-3-ylmethyl)-5-(2-fluorobenzyloxymethyl)isoxazole-3-carboxamide] | – | ≥ 80 | ≥ 80 | – | ≥ 90 | ≥ 80
23 | CC1(CNC(=O)c2cc(COCc3ccccc3)on2)COC1 [(334), N-(3-methyloxetan-3-ylmethyl)-5-benzyloxymethylisoxazole-3-carboxamide] | ≥ 80 | ≥ 80 | ≥ 80 | – | – | ≥ 80
